Source: ChEMBL document CHEMBL3877327, “Activation of anti-oxidant Nrf2 signaling by substituted trans stilbenes” (Bioorg Med Chem, 2017)

These compounds were tested against T1, Nuclear factor erythroid 2-related factor 2 (Homo sapiens) (UniProt Q16236) (assay: Activation of Nrf2 (unknown origin) expressed in human HepG2 cells after 5 hrs by ARE-driven luciferase reporter gene assay relative to control).
T1 sequence (whole entry): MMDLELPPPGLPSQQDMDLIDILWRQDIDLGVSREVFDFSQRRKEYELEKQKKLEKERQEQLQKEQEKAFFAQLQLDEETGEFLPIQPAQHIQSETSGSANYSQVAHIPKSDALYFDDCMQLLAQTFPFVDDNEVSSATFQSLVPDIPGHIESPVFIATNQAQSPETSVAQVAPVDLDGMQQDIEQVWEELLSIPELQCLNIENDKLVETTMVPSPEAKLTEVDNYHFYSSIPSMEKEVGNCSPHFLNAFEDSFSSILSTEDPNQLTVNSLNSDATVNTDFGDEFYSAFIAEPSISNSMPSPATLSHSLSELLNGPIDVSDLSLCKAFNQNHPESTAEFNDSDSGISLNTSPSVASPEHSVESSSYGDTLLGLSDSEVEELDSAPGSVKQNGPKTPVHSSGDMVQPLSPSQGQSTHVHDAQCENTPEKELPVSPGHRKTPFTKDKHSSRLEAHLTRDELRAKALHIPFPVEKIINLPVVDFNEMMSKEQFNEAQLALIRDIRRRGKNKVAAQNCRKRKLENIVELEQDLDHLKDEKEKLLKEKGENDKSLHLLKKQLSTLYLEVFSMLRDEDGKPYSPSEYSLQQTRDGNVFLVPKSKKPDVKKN
Format: cell-based
`COc1ccc(/C=C/c2cccc([N+](=O)[O-])c2)cc1` showed a fold change (FC) of 69.
Compound `Oc1ccc(/C=C/c2cc(O)cc(O)c2)cc1` has a fold change (FC) of 3.2.
`COc1cccc(/C=C/c2cccc(F)c2)c1OC` was tested, and the fold change (FC) was 19.4.
`Cc1ccc(/C=C/c2ccc(F)cc2F)cc1` showed a fold change (FC) of 13.5.
`Cc1ccc(/C=C/c2cccc(C(F)(F)F)c2)cc1` showed a fold change (FC) of 19.2.
Compound `Fc1cccc(/C=C/c2cc(F)ccc2F)c1` has a fold change (FC) of 10.7.
For `COc1cccc(/C=C/c2ccccc2OC)c1`, the fold change (FC) was 29.2.
Work on `COc1cccc(/C=C/c2ccc(F)cc2)c1` yielded a fold change (FC) of 4.4.
With `COc1cccc(/C=C/c2ccc(F)cc2)c1OC` the fold change (FC) was 16.9.
Compound `Fc1ccc(F)c(/C=C/c2ccccc2F)c1` has a fold change (FC) of 22.3.
`O=[N+]([O-])c1cccc(/C=C/c2ccccc2)c1` showed a fold change (FC) of 18.6.
`Cc1ccc(/C=C/c2cccc(F)c2)cc1` gave a fold change (FC) of 4.7.
With `Cc1ccc(/C=C/c2ccccc2F)cc1` the fold change (FC) was 10.1.
For `Fc1ccc(/C=C/c2cccc(F)c2)cc1`, the fold change (FC) was 4.5.
For `COc1ccc(/C=C/c2cccc(F)c2)cc1`, the fold change (FC) was 3.6.
`COc1cccc(/C=C/c2ccc(C(F)(F)F)cc2)c1OC` gave a fold change (FC) of 65.5.
Compound `Cc1ccc(/C=C/c2cccc([N+](=O)[O-])c2)cc1` has a fold change (FC) of 11.9.
With `COc1ccc(/C=C/c2ccc(F)cc2)cc1` the fold change (FC) was 1.7.
For `COc1ccc(/C=C/c2ccc(O)c(OC)c2)cc1`, the fold change (FC) was 27.7.
With `Fc1cccc(/C=C/c2ccc(F)cc2F)c1` the fold change (FC) was 8.2.
For `COc1cccc(/C=C/c2ccc(C)cc2)c1OC`, the fold change (FC) was 16.1.
For `COc1ccc(OC)c(/C=C/c2ccc(OC)cc2OC)c1`, the fold change (FC) was 12.9.
With `Cc1ccc(/C=C/c2ccc(F)cc2)cc1` the fold change (FC) was 1.1.
For `Fc1ccc(/C=C/c2ccc(F)cc2F)cc1`, the fold change (FC) was 16.8.
`Fc1ccccc1/C=C/c1ccccc1` was tested, and the fold change (FC) was 10.7.
Compound `Fc1cccc(/C=C/c2cccc(F)c2)c1` has a fold change (FC) of 7.
`Fc1cccc(F)c1/C=C/c1ccccc1` was tested, and the fold change (FC) was 11.4.
`COc1ccc(/C=C/c2ccc(F)cc2)cc1OC` was tested, and the fold change (FC) was 1.6.
`Fc1ccc(/C=C/c2cc(F)ccc2F)cc1` showed a fold change (FC) of 11.2.
For `COc1ccc(/C=C/c2ccccc2F)cc1`, the fold change (FC) was 14.9.
`Fc1ccc(/C=C/c2ccccc2F)cc1` gave a fold change (FC) of 12.7.
`COc1ccc(/C=C/c2cccc(F)c2)cc1OC` showed a fold change (FC) of 5.9.
With `COc1ccc(OC)c(/C=C/c2ccc(F)cc2)c1` the fold change (FC) was 10.7.
`Fc1cccc(/C=C/c2ccccc2)c1` was tested, and the fold change (FC) was 4.9.
`COc1ccccc1/C=C/c1ccccc1` showed a fold change (FC) of 23.1.
For `COc1ccc(/C=C/c2ccc(OC)cc2OC)cc1`, the fold change (FC) was 15.6.
`C[S+]([O-])CCCCN=C=S` (stereo not drawn) showed a fold change (FC) of 12.4.
`Fc1cccc(/C=C/c2ccc(F)c(F)c2)c1` was tested, and the fold change (FC) was 12.2.
With `Fc1ccccc1/C=C/c1ccc(Cl)cc1` the fold change (FC) was 5.3.
In the case of `Fc1ccccc1/C=C/c1ccccc1F`, the fold change (FC) is reported as 13.9.
With `COc1ccc(/C=C/c2ccccc2Cl)cc1` the fold change (FC) was 17.8.
`COc1cccc(/C=C/c2ccccc2F)c1` showed a fold change (FC) of 14.4.
In the case of `Oc1ccc(/C=C/c2ccccc2F)cc1`, the fold change (FC) is reported as 13.4.
`COc1cccc(/C=C/c2cccc(F)c2)c1` showed a fold change (FC) of 15.1.
With `Fc1ccc(/C=C/c2ccccc2F)c(F)c1` the fold change (FC) was 5.
`COc1cccc(/C=C/c2ccccc2)c1OC` showed a fold change (FC) of 25.4.
In the case of `COc1cccc(/C=C/c2ccc(C(C)C)cc2)c1OC`, the fold change (FC) is reported as 33.9.
With `Fc1ccccc1/C=C/c1c(F)cccc1F` the fold change (FC) was 21.2.
For `COc1ccc(/C=C/c2cc(F)ccc2F)cc1`, the fold change (FC) was 17.
In the case of `Fc1ccc(/C=C/c2ccccc2)cc1`, the fold change (FC) is reported as 4.8.
`COc1ccccc1/C=C/c1ccccc1F` gave a fold change (FC) of 18.4.
`Cc1ccc(/C=C/c2ccc(F)c(F)c2)cc1` showed a fold change (FC) of 10.2.

These compounds were tested against T1, Nuclear factor erythroid 2-related factor 2 (Homo sapiens) (assay: Activation of Nrf2 (unknown origin) expressed in human HepG2 cells at 15 uM after 5 hrs by ARE-driven luciferase reporter gene assay relative to control).
Format: cell-based
Compound `COc1ccc(/C=C/c2cccc(O)c2)cc1` has a fold change (FC) of 28.1.
With `COc1cccc(/C=C/c2cc(OC)ccc2OC)c1` the fold change (FC) was 15.7.
`COc1ccc(/C=C/c2ccc(F)c(F)c2)cc1` gave a fold change (FC) of 4.6.
For `Fc1cccc(/C=C/c2ccccc2F)c1`, the fold change (FC) was 8.5.
`Fc1ccc(/C=C/c2ccc(F)c(F)c2)cc1` showed a fold change (FC) of 7.
In the case of `Fc1ccc(/C=C/c2ccccc2F)cc1F`, the fold change (FC) is reported as 11.5.
